Data published in paper PMC9126943, “ADAMTS4-specific MR probe to assess aortic aneurysms in vivo using synthetic peptide libraries” (Nature Communications, 2022).
Several values for one entry are separate records, joined by “and”; a condition that tells them apart may be missing. Identical values can stand only once. Where a SMILES comes first, the peptide text is derived from it. Bridges are numbered along the chain shown (N, C = ends). The star is where a group is joined. DOTA = O=C(O)CN1CCN(CC(=O)O)CCN(CC(=O)*)CCN(CC(=O)O)CC1

What was measured:
[1] = Solubility (statement, no method); assay type: physicochemical; details: statement in the discussion
[2] = biological target: T1, ADAMTS4 in the aneurysmal aortic wall of ApoE−/− mice (Mus musculus, UniProt Q8BNJ2); assay: In vivo competition experiment
T1 construct: from tissue
T1 sequence (Q8BNJ2 209-833): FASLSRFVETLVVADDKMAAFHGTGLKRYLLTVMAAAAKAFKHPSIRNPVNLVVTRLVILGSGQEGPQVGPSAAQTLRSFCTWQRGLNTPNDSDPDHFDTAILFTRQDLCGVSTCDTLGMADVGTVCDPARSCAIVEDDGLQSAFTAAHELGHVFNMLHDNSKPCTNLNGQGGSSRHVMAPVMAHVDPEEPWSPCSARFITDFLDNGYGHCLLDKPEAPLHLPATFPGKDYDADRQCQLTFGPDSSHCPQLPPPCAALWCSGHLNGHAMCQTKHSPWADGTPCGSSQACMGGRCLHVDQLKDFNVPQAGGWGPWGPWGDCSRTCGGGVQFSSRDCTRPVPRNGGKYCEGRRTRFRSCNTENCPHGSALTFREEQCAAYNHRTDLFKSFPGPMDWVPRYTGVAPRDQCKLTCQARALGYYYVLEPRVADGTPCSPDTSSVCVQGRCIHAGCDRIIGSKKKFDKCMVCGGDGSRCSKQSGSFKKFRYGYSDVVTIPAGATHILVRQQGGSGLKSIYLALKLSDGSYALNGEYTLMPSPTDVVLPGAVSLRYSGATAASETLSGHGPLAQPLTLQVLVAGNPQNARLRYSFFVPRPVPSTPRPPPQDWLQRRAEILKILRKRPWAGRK
Procedure: An in vivo competition experiment was performed in 3 ApoE^−/− mice (n = 3) 4 weeks after AAA induction. On day 1, MR imaging was performed prior to and following the intravenous administration of the ADAMTS4-specific probe. On day 2, MRI was performed prior to and after the injection of a 7-fold higher dose of the non-paramagnetic europium-labeled ADAMTS4-specific probe. Then, a clinical dose of the ADAMST4 specific probe (0.13 mmol/kg) was administered with the following imaging after 20 min.
Analysis of resulting MR images was performed using OsiriX (version 7.1, OsiriX Foundation, Bernex, Switzerland). All morphometric measurements were conducted on high-resolution MRI images. In order to assess the signal intensities, regions of interest (ROIs) were measured as areas of signal enhancement, which were co-localized with areas of aneurysmal-aortic tissue. For these areas, the CNR was calculated using the following formula: CNR = (Combined vessel-wall and aneurysmal-aortic-tissue-signal − blood-signal)/standard-deviation-signal (noise). The signal of noise was defined as the standard deviation in pixel intensity from an ROI placed in the background air anterior to the aorta.

N=C(N)NCCC[C@@H]1NC(=O)[C@H](CCCNC(=N)N)NC(=O)[C@H](CO)NC(=O)[C@@H](N)CSSC[C@@H](C(=O)N[C@@H](CO)C(=O)NCC(=O)NCC(=O)N[C@@H](CO)C(=O)NCC(=O)NCC(=O)N[C@@H](CCCCNC(=O)CN2CCN(CC(=O)O)CCN(CC(=O)O)CCN(CC(=O)O)CC2)C(=O)NCC(N)=O)NC(=O)CNC1=O (Gd complex, metal not drawn) [ADAMTS4-specific probe] (H-CSRRGCSGGSGGK(DOTA)G-NH2; disulfide 1-6)
solubility [1]: high solubility
CNR d1 post, individual animals ([2]; day 1, Gd-labeled probe alone): 10.05 and 8.83 and 9.84
CNR d2 post, individual animals ([2]; day 2, after 7-fold dose of Eu-labeled probe followed by Gd-labeled probe 0.13 mmol/kg): 5.81 and 4.92 and 5.19
